These results are taken from US6903086B2, “Alkoxycarbonylamino benzoic acid or alkoxycarbonylamino tetrazolyl phenyl derivatives as IP antagonists” (SYNTEX (U.S.A.) LLC, priority 2001, dated 2005).

SMILES strings stand for the structures.

On to `O=C(Nc1ccc(Cl)cc1C(=O)O)OCc1cc2cc(-c3ccc(F)cc3)ccc2o1` [compound 24, 5-chloro-2-[5-(4-fluoro-phenyl)-benzofuran-2-ylmethoxycarbonylamino]-benzoic acid], for which the melting point lay in the range of 216.7 to 217.3 °C.
The molecule `O=C(Nc1cccc(Cl)c1C(=O)O)OCc1cc2cc(-c3ccc(F)cc3)ccc2o1` [compound 25, 2-chloro-6-[5-(4-fluoro-phenyl)-benzofuran-2-ylmethoxycarbonylamino]-benzoic acid] displayed a melting point of 216.7 to 217.3 °C.
The result for `O=C(Nc1ccc(Br)cc1C(=O)O)OCc1cc2cc(-c3ccc(F)cc3)ccc2o1` [compound 26, 5-bromo-2-[5-(4-fluoro-phenyl)-benzofuran-2-ylmethoxycarbonylamino]-benzoic acid] reads 220.3 to 220.6 °C.
With `Cc1cccc(NC(=O)OCc2cc3cc(-c4ccc(F)cc4)ccc3o2)c1C(=O)O` [compound 27, 2-[5-(4-fluoro-phenyl)-benzofuran-2-ylmethoxycarbonylamino]-6-methyl-benzoic acid] the figure was 176.1 to 178.8 °C.
`Cc1ccc(NC(=O)OCc2cc3cc(-c4ccc(F)cc4)ccc3o2)c(C(=O)O)c1` [compound 28, 2-[5-(4-fluoro-phenyl)-benzofuran-2-ylmethoxycarbonylamino]-5-methyl-benzoic acid] yielded a melting point of 190.8 to 191.9 °C.
With `COc1cccc(NC(=O)OCc2cc3cc(-c4ccc(F)cc4)ccc3o2)c1C(=O)O` [compound 29, 2-[5-(4-fluoro-phenyl)-benzofuran-2-ylmethoxycarbonylamino]-6-methoxy-benzoic acid] the figure was 160.5 to 164.3 °C.
The result for `O=C(Nc1cccc([N+](=O)[O-])c1C(=O)O)OCc1cc2cc(-c3ccc(F)cc3)ccc2o1` [compound 30, 2-[5-(4-fluoro-phenyl)-benzofuran-2-ylmethoxycarbonylamino]-6-nitro-benzoic acid] reads 191.5 to 191.9 °C; that for `Cc1ccc(NC(=O)OCc2cc3cc(-c4ccsc4)ccc3o2)c(C(=O)O)c1` [compound 31, 5-methyl-2-(5-thiophen-3-yl-benzofuran-2-ylmethoxycarbonylamino)-benzoic acid], 213.2 to 215.1 °C.
With `O=C(Nc1ccc(-c2ccc(F)cc2)cc1C(=O)O)OCc1cc2cc(-c3ccsc3)ccc2o1` [compound 32, 4′-fluoro-4-(5-thiophen-3-yl-benzofuran-2-ylmethoxycarbonylamino)-biphenyl-3-carboxylic acid] the figure was 213.2 to 215.1 °C; with `N#Cc1cccc(NC(=O)OCc2cc3cc(-c4ccc(F)cc4)ccc3o2)c1C(=O)O` [compound 33, 2-cyano-6-[5-(4-fluoro-phenyl)-benzofuran-2-ylmethoxycarbonylamino]-benzoic acid], 150 °C (dec.).
With `O=C(Nc1ccc(-c2ccc(F)cc2)cc1C(=O)O)OCc1cc2cc(-c3cccnc3)ccc2o1` [compound 34, 4′-fluoro-4-(5-pyridin-3-yl-benzofuran-2-ylmethoxycarbonylamino)-biphenyl-3-carboxylic acid], the melting point lay within 237.1 to 237.5 °C.
With `Cc1ccc(NC(=O)OCc2cc3cc(-c4cccnc4)ccc3o2)c(C(=O)O)c1` [compound 35, 5-methyl-2-(5-pyridin-3-yl-benzofuran-2-ylmethoxycarbonylamino)-benzoic acid] the figure was 200.1 to 200.4 °C; with `O=C(Nc1cccc(Cl)c1C(=O)O)OCc1cc2cc(-c3cccnc3)ccc2o1` [compound 36, 2-chloro-6-(5-pyridin-3-yl-benzofuran-2-ylmethoxycarbonylamino)-benzoic acid], 172 to 174 °C; with `O=C(Nc1cccc(Cl)c1C(=O)O)OCc1cc2cc(-c3cncnc3)ccc2o1` [compound 37, 2-chloro-6-(5-pyrimidin-5-yl-benzofuran-2-ylmethoxycarbonylamino)-benzoic acid], 192.8 to 194.3 °C.
For `O=C(Nc1cccc(Cl)c1C(=O)O)OCc1cc2cc(-c3ccccn3)ccc2o1` [compound 38, 2-chloro-6-(5-pyridin-2-yl-benzofuran-2-ylmethoxycarbonylamino)-benzoic acid], the melting point was in the range of 134.8 to 144.1 °C.
The result for `O=C(Nc1cccc(Cl)c1C(=O)O)OCc1cc2cc(-c3cnccn3)ccc2o1` [compound 39, 2-chloro-6-(5-pyrazin-2-yl-benzofuran-2-ylmethoxycarbonylamino)-benzoic acid] reads 212 to 214.1 °C.
For the molecule `O=C(Nc1cccc(Cl)c1C(=O)O)OCc1cc2cc(-c3ccnnc3)ccc2o1` [compound 40, 2-chloro-6-(5-pyridazin-4-yl-benzofuran-2-ylmethoxycarbonylamino)-benzoic acid], the melting point was in the range of 179 to 182.2 °C.
With `Cc1cc(Br)ccc1NC(=O)OCc1cc2cc(-c3cccnc3)ccc2o1` [compound 41, (4-bromo-2-methyl-phenyl)-carbamic acid 5-pyridin-3-yl-benzofuran-2-ylmethyl ester] the figure was 213.9 to 214.5 °C; with `O=C(Nc1cccc(Br)c1C(=O)O)OCc1cc2cc(-c3ccc(F)cc3)ccc2o1` [compound 42, 2-bromo-6-[5-(4-fluoro-phenyl)-benzofuran-2-ylmethoxycarbonylamino]-benzoic acid], 170.6 to 172 °C; with `O=C(O)Cc1ccccc1NC(=O)OCc1cc2cc(-c3ccccc3)ccc2o1` [compound 42, [2-(5-phenyl-benzofuran-2-ylmethoxycarbonylamino)-phenyl]-acetic acid], 169.5 to 170.9 °C.
The result for `O=C(Nc1ccc2ccccc2c1C(=O)O)OCc1cc2cc(-c3ccccc3)ccc2o1` [compound 201, 2-(5-phenyl-benzofuran-2-ylmethoxycarbonylamino)-naphthalene-1-carboxylic acid] reads 174.5 to 177.2 °C.
With `O=C(Nc1ccc2ccccc2c1C(=O)O)OCc1cc2cc(-c3ccc(F)cc3)ccc2o1` [compound 202, 2-[5-(4-fluoro-phenyl)-benzofuran-2-ylmethoxycarbonylamino]-naphthalene-1-carboxylic acid] the figure was 204.5 to 205 °C; with `CC(C)Oc1ccc(NC(=O)OCc2cc3cc(-c4ccc(F)cc4)ccc3o2)c(C(=O)O)c1` [compound 301, 2-[5-(4-fluoro-phenyl)-benzofuran-2-ylmethoxycarbonylamino]-5-isopropoxy-benzoic acid], 195 to 196.5 °C; with `O=C(Nc1cc(C(=O)O)cc(-c2ccccc2)c1)OCc1cc2cc(-c3ccccc3)ccc2o1` [compound 401, 5-(5-phenyl-benzofuran-2-ylmethoxycarbonylamino)-biphenyl-3-carboxylic acid], 235.7 to 238.9 °C.
`O=C(Nc1ccc(-c2ccccc2)cc1-c1nnn[nH]1)OCc1cc2cc(-c3ccccc3)ccc2o1` [compound 501] gave a melting point of 180 to 183 °C.
With `O=C(Nc1ccc(-c2ccccc2)cc1-c1nnn[nH]1)OCc1cc2cc(-c3cc(Cl)cc(Cl)c3)ccc2o1` [compound 502, [3-(1H-tetrazol-5-yl)-biphenyl-4-yl]-carbamic acid 5-(3,5-dichloro-phenyl)-benzofuran-2-ylmethyl ester] the figure was 127.5 to 134 °C; with `O=C(Nc1ccccc1-c1nnn[nH]1)OCc1cc2cc(-c3ccc(F)cc3)ccc2o1` [compound 503, [2-(1H-tetrazol-5-yl)-phenyl]-carbamic acid 5-(4-fluoro-phenyl)-benzofuran-2-ylmethyl ester], 155 to 158 °C.
The result for `O=C(Nc1ccc(Br)cc1-c1nnn[nH]1)OCc1cc2cc(-c3ccc(F)cc3)ccc2o1` [compound 504, [4-bromo-2-(1H-tetrazol-5-yl)-phenyl]-carbamic acid 5-(4-fluoro-phenyl)-benzofuran-2-ylmethyl ester] reads 121 to 138 °C; that for `O=C(Nc1ccc(-c2ccc(F)cc2)cc1-c1nnn[nH]1)OCc1cc2cc(-c3ccc(F)cc3)ccc2o1` [compound 505, [4′-fluoro-3-(1H-tetrazol-5-yl)-biphenyl-4-yl]-carbamic acid 5-(4-fluoro-phenyl)-benzofuran-2-ylmethyl ester], 209 to 211 °C; that for `O=C(Nc1ccc(F)cc1-c1nnn[nH]1)OCc1cc2cc(-c3ccc(F)cc3)ccc2o1` [compound 506, [4-fluoro-2-(1H-tetrazol-5-yl)-phenyl]-carbamic acid 5-(4-fluoro-phenyl)-benzofuran-2-ylmethyl ester], 121 to 125.2 °C.
The result for `O=C(Nc1ccc(Br)cc1-c1nnn[nH]1)OCc1cc2cc(-c3ccccc3)ccc2o1` [compound 507, [4-bromo-2-(1H-tetrazol-5-yl)-phenyl]-carbamic acid 5-phenyl-benzofuran-2-ylmethyl ester] reads 166 to 190 °C.
`O=C(Nc1ccccc1-c1nnn[nH]1)OCc1cc2cc(-c3ccccc3)ccc2o1` [compound 508, [2-(1H-tetrazol-5-yl)-phenyl]-carbamic acid 5-phenyl-benzofuran-2-ylmethyl ester] came in with a melting point of 213 to 216.5 °C.
`O=C(Nc1ccc(-c2ccccc2)cc1-c1nnn[nH]1)OCc1cc2cc(-c3ccc(F)cc3)ccc2o1` [compound 509, [3-(1H-tetrazol-5-yl)-biphenyl-4-yl]-carbamic acid 5-(4-fluoro-phenyl)-benzofuran-2-ylmethyl ester]: the melting point was 192 to 230 °C.
With `O=C(Nc1ccc(-c2ccccc2)cc1C(=O)O)OCc1ccc(-c2ccccc2)cc1` [compound 601, 4-(biphenyl-4-ylmethoxycarbonylamino)-biphenyl-3-carboxylic acid] the figure was 234.5 to 235.6 °C.
Turning to `Nc1cccc(NC(=O)OCc2cc3cc(-c4ccc(F)cc4)ccc3o2)c1C(=O)O` [compound 701, 2-amino-6-[5-(4-fluorophenyl)benzofuran-2-ylmethoxycarbonylamino]benzoic acid], the melting point was 176.4 to 178.5 °C.
The result for `O=C(Nc1cccc(Cl)c1C(=O)O)OCCOc1ccc(-c2ccccc2)cc1` [compound 801, 2-[2-(biphenyl-4-yloxy)-ethoxycarbonylamino]-6-chloro-benzoic acid] reads 157.5 to 158.9 °C.

The melting point is the temperature of the solid-liquid transition.
